US6984649B1, “Pyridine derivatives” (Bayer Aktiengesellschaft, priority 2000, dated 2006)
pIC50: −log10 of the molar value. Counter-ions that a name gives are not always drawn.

tested on: A549 human lung epithelium cell line; assay: RANTES production in response to TNF-α from A549 cells; type: cell-based; details: Homo sapiens, A549, A549 cells, 100 ng/ml TNF-α, read-out: Cellular activity grade (A549) (Cellular IC50)
Experimental: [The Measurement of RANTES Production in Response to TNF-α from A549 Cells]
(1) Preparation of A549 Cells
• The A549 human lung epithelium cell line (ATCC […]) was maintained in Dulbecco's modified Eagle's medium (D-MEM, Nikken Biomedical Institute) supplemented with 10% FCS (Gibco), 100 U/ml penicillin, 100 μg/ml streptomycin, and 2 mM glutamine (culture medium). Forty thousand (4×10^4) cells (80 μl/well) were seeded in each well of 96 well flat-bottom tissue culture plate (Falcon #3072). The plate was allowed to stand for 2 hrs, thus the cells were adhered to the bottom of each well. To the each well was added 10 μl vehicle (1% DMSO), serial dilutions of test compounds in 1% DMSO, or 5 nM Dexamethasone in 1% DMSO as a reference. The mixture (90 μl/well) was incubated for 1 hr at 37° C. After 1 hr, 1 μg/ml TNF-α (10 μl) in culture medium was added to the mixture to obtain 100 μl of reaction mixture. The reaction mixture was cultured for 24 hrs to stimulate the cells with 100 ng/ml TNF-α. Cells with vehicle without TNF-α stimulation were also prepared. (2) Measurement of RANTES Production • Then the concentration of RANTES released from the cells in the supernatants of each well was determined using a quantitative sandwich enzyme immunoassay technique. First, 2 μg/ml mouse anti-huRANTES mAb (R&D Systems, #mAb678) in PBS buffer (pH 7.4, 100 μl) was put in each well of 96-well NUNC fluoro plate (Nalge Nunc, New York USA) (Final 200 ng/well) and the plate was allowed to stand for overnight at 4° C. to be coated by the antibody. Each well of the plate was then washed with 350 μl wash buffer (0.05% Tween-20, 0.85% NaCl, and 25 mM Tris/HCl pH7.4) for three times. Blocking buffer containing 1% BSA (Sigma 99% pure, 100 g), 5% sucrose (Nacalai tesque, 99% pure, 500 g), and 0.02% azide (Nacalai tesque, 100%, 500 g) were added (200 μl) to each well and then the plate was allowed to stand for 4 hours to stabilize the coated antibody. Next, 50 μl supernatants of cell culture prepared in (1) above were put in each well of the 96-well NUNC fluoro plate with coated antibody. Recombinant Human RANTES (Pepro Tech, Inc. #300-06) was used as the standard for the determination of RANTES production (linear range between 1 and 10 ng/ml). Eu-labelled mouse anti-huRANES mAb (60 ng/ml: R&D Systems, #mAb278) in PBS supplemented by 1% BSA and 0.05% Tween 20 was added (50 μl) to each well. The reaction mixtures were incubated at room temperature for 4 hrs. After washing with wash buffer (0.05% Tween-20, 0.85% NaCl, and 25 mM Tris/HCl pH7.4, 350 μl/well) for 5 times with the use of a Sera Washer (Bio-Tech, #MW-96R), the enhancement solution (DELFIA, #1244-405, 100 μl/well) was added to each well. The plate was incubated for 10 minutes at room temperature with moderate shaking. Fluorescent intensity was measured using a DELFIA fluorimeter (Wallac). Excitation was performed at 340 nm and emission was measured at 615 nm. [The Measurement of TNF-α Production in Response to LPS from Peripheral Blood Mononuclear Cells (PBMC)] (1) Preparation of PBMC • Human PBMC were prepared by first obtaining blood from healthy donors and isolating the cells from the blood. The isolation was done by Ficoll gradient-centrifugation method using Ficoll Pacque (Pharmacia #17-1440-02). Within three hours from donation, the isolated PBMC was used. After three times washing with PBS, PBMC were resuspended with RPMI 1640 (Nikken BioMedical Institute) supplemented with 10% FCS (Gibco), 100 U/ml penicillin, 100 μg/ml streptomycin, and 2 mM glutamine (culture medium). The cells (1×10^5 in 150 μL/well) were seeded in each well of 96 well flat-bottom tissue culture plate (Falcon #3072). To the each well was added 20 μl vehicle (1% DMSO), serial dilutions of test compounds in 1% DMSO, or 250 nM Dexamethasone in 1% DMSO as a reference. The mixture (170 μl/well) was incubated for 1 hr at 37° C. After 1 hr, 20 ng/ml LPS (30 μl) in culture medium was added to the mixture to obtain 200 μl of reaction mixture. […]

pIC50	SMILES
< 5.00	N#Cc1c(C2CCCN(Cc3ccccc3)C2)cc(-c2c(O)cccc2OCC2CC2)nc1N (stereo not drawn) [Example 3-2, 2-amino-4-(1-benzyl-3-piperidinyl)-6-[2-(cyclopropylmethoxy)-6-hydroxyphenyl]nicotinonitrile]
5.00 to 6.00	N#Cc1c(C2CCCNC2)cc(-c2ccccc2O)nc1NCc1ccccc1 (stereo not drawn) [Example 4-1, 2-(benzylamino)-6-(2-hydroxyphenyl)-4-(3-piperidinyl)nicotinonitrile hydrochloride]
< 5.00	CCCNc1nc(-c2ccccc2O)cc(C2CCCNC2)c1C#N (stereo not drawn) [Example 4-2, 6-(2-hydroxyphenyl)-4-(3-piperidinyl)-2-(propylamino)nicotinonitrile hydrochloride]
< 5.00	CNc1nc(-c2ccccc2O)cc(C2CCCNC2)c1C#N (stereo not drawn) [Example 4-3, 6-(2-hydroxyphenyl)-2-(methylamino)-4-(3-piperidinyl)nicotinonitrile hydrochloride]
5.00 to 6.00	N#Cc1c(C2CCCNC2)cc(-c2ccccc2O)nc1Nc1ccccc1 (stereo not drawn) [Example 4-4, hydrochloride]
5.00 to 6.00	Nc1n[nH]c2nc(-c3ccccc3O)cc(C3CCCNC3)c12 (stereo not drawn) [Example 5-1, 2-[3-amino-4-(3-piperidinyl)-1H-pyrazolo[3,4-b]pyridin-6-yl]phenol hydrochloride]
< 5.00	CC(=O)Nc1n[nH]c2nc(-c3ccccc3O)cc(C3CCCNC3)c12 (stereo not drawn) [Example 5-2, N-[6-(2-hydroxyphenyl)-4-(3-piperidinyl)-1H-pyrazolo[3,4-b]pyridin-3-yl]acetamide hydrochloride]
5.00 to 6.00	CC(=O)Nc1nc(-c2ccccc2O)cc(C2CCCNC2)c1C#N (stereo not drawn) [Example 6-1, N-[3-cyano-6-(2-hydroxyphenyl)-4-(3-piperidinyl)-2-pyridinyl]acetamide hydrochloride]
> 6.00	CC(=O)Nc1nc(-c2c(O)cccc2OCC2CC2)cc(C2CCNCC2)c1C#N [Example 6-2, N-[3-cyano-6-[2-(cyclopropylmethoxy)-6-hydroxyphenyl]-4-(4-piperidinyl)-2-pyridinyl]acetamide hydrochloride]
5.00 to 6.00	NC(=O)c1c(C2CCCNC2)cc(-c2ccccc2O)nc1N (stereo not drawn) [Example 7-1, 2-amino-6-(2-hydroxyphenyl)-4-(3-piperidinyl)nicotinamide hydrochloride]
< 5.00	O=c1[nH]c(=O)c2c(C3CCCNC3)cc(-c3ccccc3O)nc2[nH]1 (stereo not drawn) [Example 7-2, 7-(2-hydroxyphenyl)-5-(3-piperidinyl)pyrido[2,3-d]pyrimidine-2,4(1H,3H)-dione hydrochloride]
< 5.00	O=c1[nH]c2nc(-c3ccccc3O)cc(C3CCCNC3)c2c(=O)n1-c1ccccc1 (stereo not drawn) [Example 7-3, 7-(2-hydroxyphenyl)-3-phenyl-5-(3-piperidinyl)pyrido[2,3-d]pyrimidine-2,4(1H,3H)-dione hydrochloride]
5.00 to 6.00	Nc1nc(-c2ccccc2O)cc2c1C(=O)N1CCCC2C1 (stereo not drawn) [Example 8-1, 6-amino-4-(2-hydroxy-phenyl)-5,9-diaza-tricyclo[7.3.1.0^2,7]trideca-2(7),3,5-trien-8-one]
5.00 to 6.00	CNC(=O)c1c(C2CCCNC2)cc(-c2ccccc2O)nc1N (stereo not drawn) [Example 8-2, 2-amino-6-(2-hydroxyphenyl)-N-methyl-4-(3-piperidinyl)nicotinamide hydrochloride]
> 6.00	CNC(=O)c1c(C2CCCNC2)cc(-c2c(O)cccc2OCC2CC2)nc1N (stereo not drawn) [Example 8-3, 2-amino-6-[2-(cyclopropylmethoxy)-6-hydroxyphenyl]-N-methyl-4-(3-piperidinyl)nicotinamide hydrochloride]
5.00 to 6.00	CC(C)(C)OC(=O)c1c(C2CCCNC2)cc(-c2ccccc2O)nc1N (stereo not drawn) [Example 9-1, tert-butyl 2-amino-6-(2-hydroxyphenyl)-4-(3-piperidinyl)nicotinate hydrochloride]
5.00 to 6.00	Nc1nc(-c2ccccc2O)cc(C2CCCNC2)c1C(=O)O (stereo not drawn) [Example 9-2, 2-amino-6-(2-hydroxyphenyl)-4-(3-piperidinyl)nicotinic acid hydrochloride]
< 5.00	Nc1nc(-c2c(O)cccc2OCC2CC2)cc(C2CCCNC2)c1C(=O)O (stereo not drawn) [Example 9-3, 2-amino-6-[2-(cyclopropylmethoxy)-6-hydroxyphenyl]-4-(3-piperidinyl)nicotinic acid hydrochloride]
5.00 to 6.00	Cn1c(=O)[nH]c2nc(-c3ccccc3O)cc(C3CCCNC3)c2c1=O (stereo not drawn) [Example 10-1, 7-(2-hydroxy-phenyl)-3-methyl-5-piperidin-3-yl-1H-pyrido[2,3-d]pyrimidine-2,4-dione hydrochloride]
> 6.00	Nc1nc(-c2ccccc2O)cc(C2CCCNC2)c1CO (stereo not drawn) [Example 11-1, 2-[6-amino-5-(hydroxymethyl)-4-(3-piperidinyl)-2-pyridinyl]phenol hydrochloride]
> 6.00	Nc1nc(-c2c(O)cccc2F)cc(C2CCCNC2)c1CO (stereo not drawn) [Example 11-2, 2-[6-amino-5-(hydroxymethyl)-4-(3-piperidinyl)-2-pyridinyl]-3-fluorophenol hydrochloride]
> 6.00	Nc1nc(-c2ncccc2O)cc(C2CCCNC2)c1CO (stereo not drawn) [Example 11-3, 6′-amino-5′-(hydroxymethyl)-4′-3-piperidinyl)-2,2′-bipyridin-3-ol hydrochloride]
> 6.00	Nc1nc(-c2ccccc2O)cc(C2=CCCNC2)c1CO [Example 11-4, 2-[6′-amino-5′-(hydroxymethyl)-1,2,5,6-tetrahydro-3,4′-bipyridin-2′-yl]phenol hydrochloride]
> 6.00	Nc1nc(-c2c(O)cccc2OCC2CC2)cc(C2CCCNC2)c1CO (stereo not drawn) [Example 12-1, 2-[6-amino-5-(hydroxymethyl)-4-(3-piperidinyl)-2-pyridinyl]-3-(cyclopropylmethoxy)phenol hydrochloride]
> 6.00	COCc1c(C2CCCNC2)cc(-c2ccccc2O)nc1N (stereo not drawn) [Example 13-1, 2-[6-amino-5-(methoxymethyl)-4-(3-piperidinyl)-2-pyridinyl]phenol hydrochloride]
> 6.00	Cc1c(C2CCCNC2)cc(-c2ccccc2O)nc1N (stereo not drawn) [Example 14-1, 2-[6-amino-5-methyl-4-(3-piperidinyl)-2-pyridinyl]phenol hydrochloride]
5.00 to 6.00	CC(O)c1c(C2CCCNC2)cc(-c2ccccc2O)nc1N (stereo not drawn) [Example 15-1, 2-[6-amino-5-(1-hydroxyethyl)-4-(3-piperidinyl)-2-pyridinyl]phenol hydrochloride]
5.00 to 6.00	Nc1nc(-c2ccccc2O)cc(C2CCCNC2)c1C(O)c1ccccc1 (stereo not drawn) [Example 15-2, 2-[6-amino-5-[hydroxy(phenyl)methyl]-4-(3-piperidinyl)-2-pyridinyl]phenol hydrochloride]
> 6.00	CC(=O)c1c(C2CCCNC2)cc(-c2ccccc2O)nc1N (stereo not drawn) [Example 15-3, 1-[2-amino-6-(2-hydroxyphenyl)4-(3-piperidinyl)-3-pyridinyl]ethanone hydrochloride]
5.00 to 6.00	Oc1ccccc1-c1cc(C2CCCNC2)c2cn[nH]c2n1 (stereo not drawn) [Example 16-1, 2-(4-Piperidin-3-yl-1H-pyrazolo[3,4-b]pyridin-6-yl)-phenol hydrochloride]
